For 5 molecules, MIC and Activity results are on record in ChEMBL document CHEMBL1255407, “High diversity of extended-spectrum beta-lactamases in Escherichia coli isolates from Italian broiler flocks” (2010).

Structures are written as SMILES.

In test [1] the test system is Escherichia coli. The test can be described thus: Antimicrobial activity against Escherichia coli isolates producing extended-spectrum beta-lactamases bla(CTX-M-1), bla(CTX-M-32) and bla(SHV-12) isolated from Italian broiler flocks by agar dilution method. In kind it is functional.
Test [2] relates to Escherichia coli. Nature of the test: Antimicrobial activity against Escherichia coli isolates producing extended-spectrum beta-lactamases bla(CTX-M-1), bla(CTX-M-32) and bla(SHV-12) assessed as resistant isolates isolated from Italian broiler flocks by disk diffusion method.

`CO/N=C(\C(=O)N[C@@H]1C(=O)N2C(C(=O)O)=C(CSC(=O)c3ccco3)CS[C@H]12)c1csc(N)n1` [CEFTIOFUR] yielded an MIC in test [1] of no less than 8 µg/mL.

`O=C(O)c1cn(C2CC2)c2cc(N3CCNCC3)c(F)cc2c1=O` [CIPROFLOXACIN] had an MIC in test [1] of less than 0.03 µg/mL. For the same molecule, in test [2], the Activity is 44%.

On to `CCn1cc(C(=O)O)c(=O)c2ccc(C)nc21` [NALIDIXIC ACID], for which, in test [2], the Activity amounted to 83%.

Take `CO/N=C(\C(=O)N[C@@H]1C(=O)N2C(C(=O)O)=C(COC(C)=O)CS[C@H]12)c1csc(N)n1` [CEFOTAXIME]: in test [1], the MIC was no less than 2 µg/mL.

Take `CN(C)[C@@H]1C(O)=C(C(N)=O)C(=O)[C@@]2(O)C(O)=C3C(=O)c4c(O)cccc4[C@@](C)(O)[C@H]3C[C@@H]12` [TETRACYCLINE]: the Activity in test [2] is recorded as 94%.
